Laboratory results reported in patent publication US8796323B2, “Defensin-like molecules as novel antimicrobial agents” (University of Maryland, Baltimore, priority 2010, dated 2014).
“Also recorded” adds a separate entry of the source.

Columns and labels:
[1] = ANTS/DPX leakage assay from large unilamellar vesicles
Experimental: Large unilamellar vesicles (LUVs) with the low molecular weight fluorophore/quencher pair (ANTS/DPX) encapsulated were prepared using the standard extrusion method. Specifically, phospholipids were dissolved in chloroform at a desired molar ratio, dried as a film by solvent evaporation. After removal of residual solvent, the lipid film was hydrated in the fluorescent solution containing 5 mM HEPES, 12.5 mM ANTS, 45 mM DPX, and 20 mM NaCl, pH 7.0, freeze-thawed for 10 cycles and extruded 10 times through 0.4-μm polycarbonate membranes. LUVs were separated from unencapsulated materials by gel filtration chromatography using a Sepharose CL-4B column eluted with 5 mM HEPES, 100 mM NaCl, pH 7.4 (high-salt). For leakage assays in a low-salt buffer, purified vesicles were further diluted with 5 mM HEPES containing 10 mM NaCl, pH 7.4.
Leakage of ANTS from LUVs, monitored on a LS-55 Perkin Elmer luminescence spectrometer, was characterized by an increase in fluorescence, which was quenched by DPX when encapsulated together inside liposomes (Ellens, H., et al., 1985, “H+- and Ca2+-induced fusion and destabilization of liposomes,” Biochemistry 24:3099-3106). 270 μl ANTS/DPX-encapsulated LUVs (in either high-salt or low-salt buffers) were added to each well of a 96-well plate to a final lipid concentration of 600 μM. 30 μl H2O was added to the first well of each row as a blank, and 30 μl 2.5% (v/v) Triton X-100 to the last (twelfth) well as the control for 100% leakage. Upon addition of 30 μl of a twofold dilution series of defensin, the fluorescence signal was recorded at 515 nm with an excitation wavelength of 353 nm, 10 nm bandwidths and a 390 nm cut-off filter in the emission path. Percent leakage is expressed as: % leakage=((Ft−F0)/(F100−F0))×100 where Ft is the fluorescence determined at different time points after addition of defensin, F0 is the background fluorescence of the “blank” cells, and F100 is the fluorescence of the control cells containing 0.25% Triton X-100. Lipid II Purification
Defensins are believed to kill bacteria by permeabilizing the membrane, causing leakage of intracellular content and eventually cell lysis and death. The present inventors tested the ability of six human α-defensins to induce leakage of fluorophores encapsulated in LUVs (See FIG. 1). […] (A) At high salt concentration (5 mM HEPES, 100 mM NaCl, pH 7.4). (B) At low salt concentration (5 mM HEPES, 10 mM NaCl, pH 7.4). LUVs were 250 nm in diameter and 600 μM (phospholipids) in concentration.
(A) Effects of surface charge on HNP1-induced leakage from LUVs of four different compositions: POPC (circle, surface charge=0), POPC/POPG=3:2 (square, surface charge=−0.4), POPC/POPG=2:3 (triangle, surface charge=−0.6), and POPG (diamond, surface charge=−1). (B) LUV (POPG:DPPC 1:1) leakage induced by L-HNP1 (circles) or D-HNP1 (squares). A two-fold dilution series of HNP1 peptides from 0.19 to 100 μg/ml was incubated with 600 μM LUVs for one hour before readings were taken. Error bars indicate the standard error in triplicate experiments.

S. aureus = conditions: literature (Ericksen 2005; Wei 2009); cited from earlier work
[2] = Surface Plasmon Resonance binding of HNP1 peptides and Lipid II; conditions: ratio of Kd values
Experimental: Short-chain water-soluble Lipid II containing a lipid tail of three isoprene units was generated and purified essentially as described in Breukink, E., et al., 2003, “Lipid II is an intrinsic component of the pore induced by nisin in bacterial membranes,” J Biol Chem 278:19898-19903.
Typically, M. flavus vesicles (120 μmol lipid-Pi) were incubated together with 500 μmol UDP-GlcNAc, 500 μmol UDP-MurNAC-pentapeptide and 400 μmol farnesyl phosphate in 100 mM Tris-HCl pH 8.0, 5 mM MgCl2. The incubation lasted two hours at room temperature for 3-P. The synthesis of 3-Lipid II was followed using RP-8 reversed phase TLC (Merck) developed in 75% methanol. […]
Surface Plasmon Resonance binding experiments were carried out on a BIAcore T100 system (BIAcore Inc., Piscataway, N.Y.) at 25° C. […] Association and dissociation were assessed for 300 and 600 second, respectively. […] Binding isotherms were analyzed with manufacturer-supplied software for BIAcore T100 and/or GraphPad Prism 4.0.
The inventors used a Surface Plasmon Resonance (SPR) approach to determine the binding of HNP1 to Lipid II directly. Initial binding of L-HNP1, D-HNP1 and linear HNP1 to soluble Lipid II immobilized on the chip surface was determined. […]

HNP1: α-defensin Human Neutrophil Peptide 1, chemically synthesized and folded
leakage from LUVs, L- versus D-enantiomer ([1]; DPPC/POPG (1:1) LUVs, FIG. 2B): equally efficiently | HNP1-induced leakage from LUVs composed solely of neutral lipid POPC ([1]; POPC LUVs, surface charge 0, 0.19 to 100 μg/ml, regardless of incubation time): resistant to the attack by HNP1 at all concentrations used | HNP1-induced leakage from LUVs as POPG content increases ([1]; POPC:POPG 1:0, 3:2, 2:3, 0:1, POPG 0, 40%, 60%, 100%): increasingly pronounced | membrane activity (leakage of ANTS-DPX from POPG LUVs) ([1]; POPG LUVs, panel of six human α-defensins, FIG. 1): reduced | bactericidal activity against S. aureus / Gram-positive bacteria (S. aureus): potently bactericidal; also recorded: kills Gram-positive bacteria very efficiently | affinity for Lipid II, L-HNP1 relative to D-HNP1 [2]: approximately five times higher affinity than the D-peptide
